From patent US20180252700A1, “SCREENING AGENTS IN DRY EYE DISEASE” (Ora, Inc., priority 2016, published 2018)

Target: T1, TRPM8 (Homo sapiens, UniProt Q7Z2W7)
T1 construct: cold receptors express TRPM8 channels, which are sensitive to innocuous cooling; from tissue; host or cells: eye (corneal cold thermoreceptor nerve endings) of living human subjects
Assay: Menthol vs placebo symptom response on 0-10 Cooling Scale, escalating menthol concentrations (Example 1)
Type: in vivo
Conditions: for Is Menthol symptom response significantly higher than placebo? (TSS): Wilcox signed rank test, 95% confidence; for Duration of symptoms (furthest time point post-dose with symptom score higher than 0), mean: average of all concentrations
Experimental: 6 Healthy and 4 Dry Eye individuals participated in a 2-day internal pilot study. Each participant underwent randomized eye, contralateral, 15 μl pipette-instilled dosing of menthol and placebo (Sterile PBS, pH 7.2), across an escalating range of Menthol concentrations. The following dilutions (USP-grade L-Menthol in Sterile PBS, pH 7.2) were initially tested, in the following order (concentrations are w/v):
Post dose, a 0-10 Cooling Scale questionnaire, where 0 represents “No cooling sensation”, and 10 denotes “Maximum cooling sensation”, was asked at the following time points (OD, OS separate; OD represents your right eye and OS represents your left eye): Upon instillation, 30 seconds, 1 minute, 2 minutes, 3 minutes, and 4 minutes—post dose. At least 45 minutes was allowed between each successive dosing to allow for re-sensitization of TRPM8, as well as to allow any analgesic effects of μ-opioid activity to diminish. At the beginning of Visit 1, symptom questionnaires and Ocular Surface Disease Index (OSDI) were asked. After all concentrations of menthol had been tested, Fluorescein staining and Anesthetized Schirmer's test were performed (1 hour washout). The Schirmer test, first described in 1903 by Schirmer, is still the method most commonly used to evaluate aqueous tear production (Schirmer Graefes Arch Clin Exp Ophthalmol. 1903; 56:197-291,1903).
The primary parameter used was Total Symptom Sum, or TSS (sum of all time points), in active eye vs placebo eye. The secondary parameter used was “Upon instillation” Cooling score. FIG. 1 illustrates a frequency distribution of all symptom scores, based on a histogram of the data. […] As such, nonparametric statistical analysis was used to determine if differences exist between treatments (menthol vs placebo). In the following results, a Wilcox Signed Rank test was employed to test the null hypothesis that Menthol and Placebo elicit statistically similar symptom scores on the Cooling Scale. If TTest Stat<TCritical Value. If so, then the null hypothesis can be rejected with 95% confidence.
All concentrations tested are shown in Table 2, below, along with statistical significance indicated for either group according to a Wilcox Signed Rank Test (Total Symptom Sum, Menthol vs Placebo): […]

[1] = Dry Eye Population, Menthol 0.000050 (w/v)
[2] = Dry Eye Population, Menthol 0.000075 (w/v)
[3] = Dry Eye Population, Menthol 0.0001 (w/v)
[4] = Dry Eye Population, Menthol 0.001 (w/v)
[5] = Healthy Population, Menthol 0.001 (w/v)

T1 sequence (Q7Z2W7 whole entry): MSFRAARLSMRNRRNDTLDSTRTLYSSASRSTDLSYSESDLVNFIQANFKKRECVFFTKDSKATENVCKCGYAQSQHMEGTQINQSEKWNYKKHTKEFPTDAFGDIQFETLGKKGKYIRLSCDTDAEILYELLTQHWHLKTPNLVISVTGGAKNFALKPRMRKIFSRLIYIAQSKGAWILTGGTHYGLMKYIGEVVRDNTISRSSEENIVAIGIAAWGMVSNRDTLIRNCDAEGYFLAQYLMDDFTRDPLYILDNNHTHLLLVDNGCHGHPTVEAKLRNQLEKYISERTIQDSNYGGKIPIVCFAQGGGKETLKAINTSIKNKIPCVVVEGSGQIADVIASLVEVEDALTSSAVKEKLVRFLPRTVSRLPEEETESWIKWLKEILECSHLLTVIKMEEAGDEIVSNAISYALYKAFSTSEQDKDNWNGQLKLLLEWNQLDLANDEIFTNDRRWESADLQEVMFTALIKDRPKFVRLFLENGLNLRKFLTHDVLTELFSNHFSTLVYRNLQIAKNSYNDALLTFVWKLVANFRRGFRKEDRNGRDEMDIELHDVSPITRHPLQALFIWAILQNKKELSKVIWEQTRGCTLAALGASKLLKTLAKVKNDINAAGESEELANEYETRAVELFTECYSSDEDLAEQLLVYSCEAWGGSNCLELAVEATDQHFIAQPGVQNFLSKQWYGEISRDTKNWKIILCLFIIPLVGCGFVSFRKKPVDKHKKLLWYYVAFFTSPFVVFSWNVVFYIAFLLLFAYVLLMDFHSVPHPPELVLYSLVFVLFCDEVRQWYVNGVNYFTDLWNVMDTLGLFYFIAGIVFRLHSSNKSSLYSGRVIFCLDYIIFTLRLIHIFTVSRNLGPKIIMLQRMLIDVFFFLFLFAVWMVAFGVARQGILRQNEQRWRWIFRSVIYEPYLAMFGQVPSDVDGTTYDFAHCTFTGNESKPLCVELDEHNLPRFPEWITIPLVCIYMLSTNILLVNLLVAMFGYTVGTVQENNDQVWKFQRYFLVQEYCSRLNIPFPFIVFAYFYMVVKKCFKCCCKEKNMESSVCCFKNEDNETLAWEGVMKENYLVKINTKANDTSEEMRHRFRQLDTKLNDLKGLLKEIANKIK

## CC(C)[C@@H]1CC[C@@H](C)C[C@H]1O [Menthol, L-Menthol]
Dry Eye Population, Menthol 0.000001 (w/v)
  % of population that had significantly higher menthol TSS than placebo TSS: 0%
Dry Eye Population, Menthol 0.00001 (w/v)
  % of population that had significantly higher menthol TSS than placebo TSS: 0%
Dry Eye Population, Menthol 0.000025 (w/v)
  % of population that had significantly higher menthol TSS than placebo TSS: 0%
[1]
  % of population that had significantly higher menthol TSS than placebo TSS: 75%
  Is Menthol symptom response significantly higher than placebo? (TSS): YES
[2]
  % of population that had significantly higher menthol TSS than placebo TSS: 25%
  Is Menthol symptom response significantly higher than placebo? (TSS): YES
[3]
  % of population that had significantly higher menthol TSS than placebo TSS: 25%
  Is Menthol symptom response significantly higher than placebo? (TSS): YES
[4]
  % of population that had significantly higher menthol TSS than placebo TSS: 75%
  Is Menthol symptom response significantly higher than placebo? (TSS): YES
Dry Eye, p=0.004 vs Normal
  Duration of symptoms (furthest time point post-dose with symptom score higher than 0), mean: 2.58 min
Healthy Population, Menthol 0.000001 (w/v)
  % of population that had significantly higher menthol TSS than placebo TSS: 0%
Healthy Population, Menthol 0.00001 (w/v)
  % of population that had significantly higher menthol TSS than placebo TSS: 0%
Healthy Population, Menthol 0.000025 (w/v)
  % of population that had significantly higher menthol TSS than placebo TSS: 0%
Healthy Population, Menthol 0.000050 (w/v)
  % of population that had significantly higher menthol TSS than placebo TSS: 16%
Healthy Population, Menthol 0.000075 (w/v)
  % of population that had significantly higher menthol TSS than placebo TSS: 16%
Healthy Population, Menthol 0.0001 (w/v)
  % of population that had significantly higher menthol TSS than placebo TSS: 0%
[5]
  % of population that had significantly higher menthol TSS than placebo TSS: 50%
  Is Menthol symptom response significantly higher than placebo? (TSS): YES
Menthol 0.001%
  Correlation score between Menthol TSS and 4-Symptom Questionnaire: 0.64
  Correlation score between Menthol TSS and Fluorescein Staining (Corneal): 0.50
  Correlation score between Menthol TSS and OSDI: 0.79
  Menthol TSS, Dry Eye vs Normal: significantly higher than Normal
Normal
  Duration of symptoms (furthest time point post-dose with symptom score higher than 0), mean: 1.57 min
Any concentrations tested, FIG. 3
  "Upon Instillation" menthol symptom response, Normal vs Dry Eye: No significant differences
Concentrations of 0.0001% and up, FIG. 2
  Symptom response to menthol (TSS), dry eye subjects vs normal: significantly higher in dry eye subjects
From Table 2
  Lower concentration at which Dry Eye population can differentiate Menthol from Placebo compared with Normal: 50 fold
